From the supplement of paper PMC6315032

Tests used:
Assay in all cases: apparent dissociation constant (pKDapp, Kinobeads competition, Cheng-Prusoff corrected) (-log10 M); higher = tighter binding
MAP4K5 = MAP4K5 (UniProt Q9Y4K4); conditions: affinity matrix / lysate: Kinobeads, mixed HEK293/K-562/placenta lysate
FER = FER (UniProt P16591); conditions: affinity matrix / lysate: Kinobeads, mixed HEK293/K-562/placenta lysate
CDKL5 = CDKL5 (UniProt O76039); conditions: affinity matrix / lysate: Kinobeads, mixed HEK293/K-562/placenta lysate
ATM = ATM (UniProt Q13315); conditions: affinity matrix / lysate: Lipid Kinobeads, mixed HeLa/Jurkat/K-562 lysate
LIMK1 = LIMK1 (UniProt P53667); conditions: affinity matrix / lysate: Kinobeads, mixed HEK293/K-562/placenta lysate
Sequence of LIMK1 (P53667 whole entry, looked up): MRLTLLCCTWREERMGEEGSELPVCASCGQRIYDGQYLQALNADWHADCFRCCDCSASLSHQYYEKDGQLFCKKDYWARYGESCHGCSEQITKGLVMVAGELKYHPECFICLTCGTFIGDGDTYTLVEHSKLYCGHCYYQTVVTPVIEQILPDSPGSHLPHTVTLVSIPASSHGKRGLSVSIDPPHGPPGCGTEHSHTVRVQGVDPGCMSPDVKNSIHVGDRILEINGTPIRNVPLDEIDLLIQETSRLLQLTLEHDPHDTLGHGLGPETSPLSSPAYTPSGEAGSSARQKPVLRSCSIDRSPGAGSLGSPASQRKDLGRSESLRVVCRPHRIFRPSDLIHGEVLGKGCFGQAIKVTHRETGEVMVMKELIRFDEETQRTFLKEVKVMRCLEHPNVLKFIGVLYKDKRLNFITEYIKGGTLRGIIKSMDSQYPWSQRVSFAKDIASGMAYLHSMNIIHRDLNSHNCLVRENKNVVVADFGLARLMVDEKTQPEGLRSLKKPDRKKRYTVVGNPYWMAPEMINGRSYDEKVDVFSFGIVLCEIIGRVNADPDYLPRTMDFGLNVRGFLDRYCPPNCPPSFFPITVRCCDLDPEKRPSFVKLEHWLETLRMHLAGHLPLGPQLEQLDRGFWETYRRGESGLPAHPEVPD

RPS6KA4 = RPS6KA4 (UniProt O75676); conditions: affinity matrix / lysate: Kinobeads, mixed HEK293/K-562/placenta lysate
Sequence of RPS6KA4 (O75676 whole entry, looked up): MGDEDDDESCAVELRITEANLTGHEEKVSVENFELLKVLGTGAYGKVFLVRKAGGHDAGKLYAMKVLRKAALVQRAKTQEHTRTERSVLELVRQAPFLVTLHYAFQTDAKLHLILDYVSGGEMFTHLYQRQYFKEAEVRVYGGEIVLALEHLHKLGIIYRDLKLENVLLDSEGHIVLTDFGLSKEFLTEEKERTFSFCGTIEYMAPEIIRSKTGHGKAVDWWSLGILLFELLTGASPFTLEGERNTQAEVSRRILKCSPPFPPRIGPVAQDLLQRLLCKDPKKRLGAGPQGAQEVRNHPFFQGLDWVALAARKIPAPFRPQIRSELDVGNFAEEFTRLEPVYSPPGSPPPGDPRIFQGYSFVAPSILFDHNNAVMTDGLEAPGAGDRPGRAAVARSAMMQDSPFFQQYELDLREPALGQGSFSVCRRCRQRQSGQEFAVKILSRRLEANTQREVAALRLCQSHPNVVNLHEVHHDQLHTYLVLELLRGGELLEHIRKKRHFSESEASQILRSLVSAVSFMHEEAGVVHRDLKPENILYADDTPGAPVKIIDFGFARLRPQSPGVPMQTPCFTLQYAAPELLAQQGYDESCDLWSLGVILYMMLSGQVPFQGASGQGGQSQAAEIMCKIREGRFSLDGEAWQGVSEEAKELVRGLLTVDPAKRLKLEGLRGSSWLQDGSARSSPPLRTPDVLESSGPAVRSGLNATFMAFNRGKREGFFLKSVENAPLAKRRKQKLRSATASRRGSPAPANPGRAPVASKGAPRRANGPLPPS

PIK3CD = target: T1, PIK3CD (UniProt O00329)
T1 sequence (whole entry): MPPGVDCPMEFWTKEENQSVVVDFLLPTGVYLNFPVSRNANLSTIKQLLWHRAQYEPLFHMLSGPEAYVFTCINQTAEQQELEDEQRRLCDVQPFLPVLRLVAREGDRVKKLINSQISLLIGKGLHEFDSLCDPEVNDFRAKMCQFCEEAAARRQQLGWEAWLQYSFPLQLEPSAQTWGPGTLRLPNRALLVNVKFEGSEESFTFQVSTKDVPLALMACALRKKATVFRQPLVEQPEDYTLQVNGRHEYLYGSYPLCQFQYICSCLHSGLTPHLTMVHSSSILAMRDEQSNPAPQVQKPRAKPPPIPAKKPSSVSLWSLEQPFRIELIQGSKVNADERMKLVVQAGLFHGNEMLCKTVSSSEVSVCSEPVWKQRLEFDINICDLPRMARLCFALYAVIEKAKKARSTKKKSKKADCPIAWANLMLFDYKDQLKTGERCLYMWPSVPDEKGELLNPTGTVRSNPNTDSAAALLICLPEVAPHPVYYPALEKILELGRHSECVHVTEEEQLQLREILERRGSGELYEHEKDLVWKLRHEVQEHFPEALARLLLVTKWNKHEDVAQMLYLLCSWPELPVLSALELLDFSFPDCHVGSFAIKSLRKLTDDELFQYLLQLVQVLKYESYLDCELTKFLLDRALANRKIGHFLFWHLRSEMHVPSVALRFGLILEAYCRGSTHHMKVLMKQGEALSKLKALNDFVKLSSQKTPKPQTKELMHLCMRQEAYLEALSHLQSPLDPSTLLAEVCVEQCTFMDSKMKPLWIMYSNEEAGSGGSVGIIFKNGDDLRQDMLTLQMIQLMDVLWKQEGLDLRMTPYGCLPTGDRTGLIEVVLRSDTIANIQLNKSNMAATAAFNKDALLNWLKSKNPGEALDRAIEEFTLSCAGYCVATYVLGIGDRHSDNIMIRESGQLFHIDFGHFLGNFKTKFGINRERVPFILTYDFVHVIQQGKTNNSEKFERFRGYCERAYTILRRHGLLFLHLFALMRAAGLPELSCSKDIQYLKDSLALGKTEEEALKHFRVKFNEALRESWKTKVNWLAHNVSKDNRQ

BUB1 = BUB1 (UniProt O43683); conditions: affinity matrix / lysate: Kinobeads, mixed HEK293/K-562/placenta lysate
PIK3CA = PIK3CA (UniProt P42336); conditions: affinity matrix / lysate: Lipid Kinobeads, mixed HeLa/Jurkat/K-562 lysate
PCTK1 = PCTK1 (UniProt Q00536); conditions: affinity matrix / lysate: Kinobeads, mixed HEK293/K-562/placenta lysate
BMP2K = BMP2K (UniProt Q9NSY1); conditions: affinity matrix / lysate: Kinobeads, mixed HEK293/K-562/placenta lysate
MAPKAPK3 = MAPKAPK3 (UniProt Q16644); conditions: affinity matrix / lysate: Kinobeads, mixed HEK293/K-562/placenta lysate
Sequence of MAPKAPK3 (Q16644 whole entry, looked up): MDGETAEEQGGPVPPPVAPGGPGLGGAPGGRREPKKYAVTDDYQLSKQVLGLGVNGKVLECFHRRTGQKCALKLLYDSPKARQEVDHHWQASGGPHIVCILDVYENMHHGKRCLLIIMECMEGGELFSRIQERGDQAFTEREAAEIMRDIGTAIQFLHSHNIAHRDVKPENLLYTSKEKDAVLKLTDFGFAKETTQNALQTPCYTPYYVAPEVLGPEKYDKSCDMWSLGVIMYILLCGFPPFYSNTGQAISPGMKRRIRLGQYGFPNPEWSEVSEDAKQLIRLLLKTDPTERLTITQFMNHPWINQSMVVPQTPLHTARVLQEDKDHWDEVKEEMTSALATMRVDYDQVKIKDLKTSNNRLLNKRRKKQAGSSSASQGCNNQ

CDC42BPB = CDC42BPB (UniProt Q9Y5S2); conditions: affinity matrix / lysate: Kinobeads, mixed HEK293/K-562/placenta lysate
PDGFRB = PDGFRB (UniProt P09619); conditions: affinity matrix / lysate: Kinobeads, mixed HEK293/K-562/placenta lysate
Sequence of PDGFRB (P09619 whole entry): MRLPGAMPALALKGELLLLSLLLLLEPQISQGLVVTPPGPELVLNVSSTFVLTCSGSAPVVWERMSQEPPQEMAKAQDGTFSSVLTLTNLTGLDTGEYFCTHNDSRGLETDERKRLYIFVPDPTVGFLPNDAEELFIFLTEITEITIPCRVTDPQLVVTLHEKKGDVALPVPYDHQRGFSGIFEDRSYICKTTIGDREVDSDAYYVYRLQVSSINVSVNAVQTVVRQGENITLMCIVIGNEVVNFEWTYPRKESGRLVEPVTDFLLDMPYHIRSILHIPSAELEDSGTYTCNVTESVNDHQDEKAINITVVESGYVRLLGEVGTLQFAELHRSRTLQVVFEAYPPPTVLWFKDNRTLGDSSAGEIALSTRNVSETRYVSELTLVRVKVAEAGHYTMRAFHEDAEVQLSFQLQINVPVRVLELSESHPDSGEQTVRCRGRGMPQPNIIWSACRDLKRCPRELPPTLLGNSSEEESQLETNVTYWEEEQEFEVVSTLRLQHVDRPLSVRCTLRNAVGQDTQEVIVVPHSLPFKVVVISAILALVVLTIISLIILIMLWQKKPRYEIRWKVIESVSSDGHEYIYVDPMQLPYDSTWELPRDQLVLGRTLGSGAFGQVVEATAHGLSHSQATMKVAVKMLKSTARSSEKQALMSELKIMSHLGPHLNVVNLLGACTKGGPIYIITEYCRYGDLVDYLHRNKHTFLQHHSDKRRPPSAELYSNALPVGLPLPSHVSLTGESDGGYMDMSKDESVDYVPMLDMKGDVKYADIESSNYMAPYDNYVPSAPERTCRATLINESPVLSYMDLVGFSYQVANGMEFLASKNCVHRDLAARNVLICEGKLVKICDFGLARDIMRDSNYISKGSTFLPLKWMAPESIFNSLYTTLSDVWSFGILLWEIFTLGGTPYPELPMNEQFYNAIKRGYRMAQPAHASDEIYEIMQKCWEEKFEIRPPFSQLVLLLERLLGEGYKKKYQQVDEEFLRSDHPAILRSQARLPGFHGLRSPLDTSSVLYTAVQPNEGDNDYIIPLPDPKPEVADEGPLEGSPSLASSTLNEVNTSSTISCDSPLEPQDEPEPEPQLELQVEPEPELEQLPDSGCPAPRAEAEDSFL

BRAF = BRAF (UniProt P15056); conditions: affinity matrix / lysate: Kinobeads, mixed HEK293/K-562/placenta lysate
ULK1 = ULK1 (UniProt O75385); conditions: affinity matrix / lysate: Kinobeads, mixed HEK293/K-562/placenta lysate
PIK3C2B = PIK3C2B (UniProt O00750)
Sequence of PIK3C2B (O00750 whole entry): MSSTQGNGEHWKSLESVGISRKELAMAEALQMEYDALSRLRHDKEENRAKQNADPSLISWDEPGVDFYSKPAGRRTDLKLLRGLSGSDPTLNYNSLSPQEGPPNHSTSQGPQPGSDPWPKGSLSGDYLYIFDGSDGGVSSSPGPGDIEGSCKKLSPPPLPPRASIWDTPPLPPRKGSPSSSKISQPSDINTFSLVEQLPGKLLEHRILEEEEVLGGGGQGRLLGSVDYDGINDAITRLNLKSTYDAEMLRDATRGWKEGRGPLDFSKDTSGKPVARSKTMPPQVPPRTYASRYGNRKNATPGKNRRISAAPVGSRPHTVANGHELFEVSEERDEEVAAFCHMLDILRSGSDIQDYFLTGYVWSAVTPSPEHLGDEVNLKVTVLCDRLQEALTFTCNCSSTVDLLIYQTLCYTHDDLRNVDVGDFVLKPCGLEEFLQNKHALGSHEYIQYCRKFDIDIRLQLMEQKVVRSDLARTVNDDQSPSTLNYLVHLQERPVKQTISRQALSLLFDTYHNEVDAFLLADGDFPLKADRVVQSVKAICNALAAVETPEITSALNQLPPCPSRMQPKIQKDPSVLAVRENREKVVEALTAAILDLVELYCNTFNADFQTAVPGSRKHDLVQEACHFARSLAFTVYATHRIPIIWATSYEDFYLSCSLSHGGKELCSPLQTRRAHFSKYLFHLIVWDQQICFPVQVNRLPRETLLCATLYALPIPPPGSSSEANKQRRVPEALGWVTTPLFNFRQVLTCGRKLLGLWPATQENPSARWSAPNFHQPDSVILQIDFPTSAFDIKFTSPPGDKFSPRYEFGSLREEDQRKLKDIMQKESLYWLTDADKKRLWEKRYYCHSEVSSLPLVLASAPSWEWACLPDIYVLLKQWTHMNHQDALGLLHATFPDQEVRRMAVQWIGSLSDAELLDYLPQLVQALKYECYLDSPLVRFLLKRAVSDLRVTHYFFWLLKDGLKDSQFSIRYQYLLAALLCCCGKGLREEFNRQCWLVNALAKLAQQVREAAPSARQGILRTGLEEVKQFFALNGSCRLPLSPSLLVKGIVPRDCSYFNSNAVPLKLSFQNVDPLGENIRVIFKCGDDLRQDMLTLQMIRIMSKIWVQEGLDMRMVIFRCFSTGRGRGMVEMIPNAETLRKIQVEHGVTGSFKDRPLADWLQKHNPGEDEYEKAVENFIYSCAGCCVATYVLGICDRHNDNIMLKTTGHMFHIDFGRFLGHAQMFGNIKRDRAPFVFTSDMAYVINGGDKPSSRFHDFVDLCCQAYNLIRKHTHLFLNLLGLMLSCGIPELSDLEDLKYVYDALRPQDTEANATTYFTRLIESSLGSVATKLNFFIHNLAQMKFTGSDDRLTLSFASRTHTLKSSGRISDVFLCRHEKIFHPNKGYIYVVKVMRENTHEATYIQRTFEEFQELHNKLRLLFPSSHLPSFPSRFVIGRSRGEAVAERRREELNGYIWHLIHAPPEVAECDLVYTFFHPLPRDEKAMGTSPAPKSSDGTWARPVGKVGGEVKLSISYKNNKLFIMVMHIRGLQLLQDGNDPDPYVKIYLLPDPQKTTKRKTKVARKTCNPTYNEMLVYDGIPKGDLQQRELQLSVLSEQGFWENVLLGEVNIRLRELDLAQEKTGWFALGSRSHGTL

BMX = BMX (UniProt P51813); conditions: affinity matrix / lysate: Kinobeads, mixed HEK293/K-562/placenta lysate
NEK2 = NEK2 (UniProt P51955); conditions: affinity matrix / lysate: Kinobeads, mixed HEK293/K-562/placenta lysate
FES = FES (UniProt P07332); conditions: affinity matrix / lysate: Kinobeads, mixed HEK293/K-562/placenta lysate
MAP2K2 = MAP2K2 (UniProt P36507); conditions: affinity matrix / lysate: Kinobeads, mixed HEK293/K-562/placenta lysate
Sequence of MAP2K2 (P36507 whole entry): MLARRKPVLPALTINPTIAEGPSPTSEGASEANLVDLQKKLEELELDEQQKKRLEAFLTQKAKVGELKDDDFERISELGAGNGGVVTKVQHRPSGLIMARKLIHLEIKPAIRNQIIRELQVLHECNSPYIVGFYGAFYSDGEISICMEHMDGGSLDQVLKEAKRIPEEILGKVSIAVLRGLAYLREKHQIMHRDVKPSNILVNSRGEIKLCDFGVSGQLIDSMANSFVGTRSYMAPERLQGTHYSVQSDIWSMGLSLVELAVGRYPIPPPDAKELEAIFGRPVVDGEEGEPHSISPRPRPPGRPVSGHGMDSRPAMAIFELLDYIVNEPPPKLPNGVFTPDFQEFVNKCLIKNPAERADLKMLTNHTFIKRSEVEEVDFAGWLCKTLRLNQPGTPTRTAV

ARAF = ARAF (UniProt P10398); conditions: affinity matrix / lysate: Kinobeads, mixed HEK293/K-562/placenta lysate
LIMK2 = LIMK2 (UniProt P53671); conditions: affinity matrix / lysate: Kinobeads, mixed HEK293/K-562/placenta lysate
[1] = affinity matrix / lysate: Kinobeads, mixed HEK293/K-562/placenta lysate
[2] = affinity matrix / lysate: Lipid Kinobeads, mixed HeLa/Jurkat/K-562 lysate

| apparent dissociation constant (-log10 M) (MAP4K5) | apparent dissociation constant (-log10 M) (FER) | apparent dissociation constant (-log10 M) (CDKL5) | apparent dissociation constant (-log10 M) (ATM) | apparent dissociation constant (-log10 M) (LIMK1) | apparent dissociation constant (-log10 M) (RPS6KA4) | apparent dissociation constant (-log10 M) (PIK3CD; [1]) | apparent dissociation constant (-log10 M) (PIK3CD; [2]) | apparent dissociation constant (-log10 M) (BUB1) | apparent dissociation constant (-log10 M) (PIK3CA) | apparent dissociation constant (-log10 M) (PCTK1) | apparent dissociation constant (-log10 M) (BMP2K) | apparent dissociation constant (-log10 M) (MAPKAPK3) | apparent dissociation constant (-log10 M) (CDC42BPB) | apparent dissociation constant (-log10 M) (PDGFRB) | apparent dissociation constant (-log10 M) (BRAF) | apparent dissociation constant (-log10 M) (ULK1) | apparent dissociation constant (-log10 M) (PIK3C2B; [1]) | apparent dissociation constant (-log10 M) (PIK3C2B; [2]) | apparent dissociation constant (-log10 M) (BMX) | apparent dissociation constant (-log10 M) (NEK2) | apparent dissociation constant (-log10 M) (FES) | apparent dissociation constant (-log10 M) (MAP2K2) | apparent dissociation constant (-log10 M) (ARAF) | apparent dissociation constant (-log10 M) (LIMK2) | SMILES |
| --- | --- | --- | --- | --- | --- | --- | --- | --- | --- | --- | --- | --- | --- | --- | --- | --- | --- | --- | --- | --- | --- | --- | --- | --- | --- |
| < 6 | < 6 | < 6 | < 6 | < 6 | < 6 | < 6 | < 6 | < 6 | < 6 | < 6 | < 6 | < 6 | < 6 | < 6 | < 6 | < 6 | < 6 | < 6 | < 6 | < 6 | < 6 | < 6 | < 6 | < 6 | CCNC(=O)Nc1ccc(-c2nc(N3CCOC[C@@H]3C)c3c(n2)C(C)(C)S(=O)(=O)C3)cc1 [CZ415] |
| < 6 | < 6 | < 6 | 6.36 | < 6 | < 6 |  | 6.57 | < 6 | 7.17 | < 6 | < 6 | < 6 | < 6 | < 6 | < 6 | < 6 |  | < 6 | < 6 | < 6 | < 6 | < 6 | < 6 | < 6 | COc1ccc(-c2ccc3c(N4CCOC[C@@H]4C)nc(N4CCOC[C@@H]4C)nc3n2)cc1CO [AZD8055] |
